Results: patent US8728537B2, “Compositions for improvement of wound healing” (Cytotools AG, priority 2003, dated 2014)

Test system: MRC 5 fibroblasts
Test: Cell biological test of active substance: proliferation of MRC 5 fibroblasts by quantification of cellular DNA after DAPI staining
Format: cell-based
Conditions: solutions containing only RC (50 μM) or only chlorite (100 μM)
Experimental: The MRC 5 cells are seeded at 400 cells/cm^2 in a 24 well cell culture plate. The subsequent cultivation is carried out in an incubator 37° C. and 5 vol. % CO2 in a water vapor saturated atmosphere. After 24 hours of precultivation, the culture medium is suctioned off and the cells are washed with PBS.
After 24, 48 and 72 hours, the proliferation of the cells is determined by quantification of the cellular DNA in a fluorometer (Novostar-Company: BMG Labtechnologies) after DAPI staining. Here, the increased fluorescence in the samples is equal to a proliferation of the cells.
The plate to be measured is washed once per well with 500 μl PBS and then 250 μl PBS is placed in each well. 250 μl lysis buffer are added and the cells are lysed in a shaker at the lowest setting for 30 min at RT. Subsequently, 500 μl DAPI solution is added and the plate is left to stand for a further 10 min at RT.
The plate is measured at 355 nm ex. and 460 nm em. in the Novostar. Normally, work is carried out with a gain adjustment of 1400-1600.
The multiple determinations are averaged and the error values are calculated. The data obtained is evaluated graphically.

## chlorite
  effect on the growth behaviour of the fibroblasts: no effect whatsoever
